Reference: PMC10104807, “Modulation of tau tubulin kinases (TTBK1 and TTBK2) impacts ciliogenesis” (Scientific Reports, 2023)

Tests used:
Test in all cases: DiscoverX scanMAX binding assay
[1] = biological target: T1, YSK4 (Homo sapiens, UniProt Q56UN5); conditions: 1 μM
T1 construct: purchased Eurofins (radiometric) / Eurofins DiscoverX scanMAX / Reaction Biology / SignalChem
T1 sequence (Q56UN5 1-1328): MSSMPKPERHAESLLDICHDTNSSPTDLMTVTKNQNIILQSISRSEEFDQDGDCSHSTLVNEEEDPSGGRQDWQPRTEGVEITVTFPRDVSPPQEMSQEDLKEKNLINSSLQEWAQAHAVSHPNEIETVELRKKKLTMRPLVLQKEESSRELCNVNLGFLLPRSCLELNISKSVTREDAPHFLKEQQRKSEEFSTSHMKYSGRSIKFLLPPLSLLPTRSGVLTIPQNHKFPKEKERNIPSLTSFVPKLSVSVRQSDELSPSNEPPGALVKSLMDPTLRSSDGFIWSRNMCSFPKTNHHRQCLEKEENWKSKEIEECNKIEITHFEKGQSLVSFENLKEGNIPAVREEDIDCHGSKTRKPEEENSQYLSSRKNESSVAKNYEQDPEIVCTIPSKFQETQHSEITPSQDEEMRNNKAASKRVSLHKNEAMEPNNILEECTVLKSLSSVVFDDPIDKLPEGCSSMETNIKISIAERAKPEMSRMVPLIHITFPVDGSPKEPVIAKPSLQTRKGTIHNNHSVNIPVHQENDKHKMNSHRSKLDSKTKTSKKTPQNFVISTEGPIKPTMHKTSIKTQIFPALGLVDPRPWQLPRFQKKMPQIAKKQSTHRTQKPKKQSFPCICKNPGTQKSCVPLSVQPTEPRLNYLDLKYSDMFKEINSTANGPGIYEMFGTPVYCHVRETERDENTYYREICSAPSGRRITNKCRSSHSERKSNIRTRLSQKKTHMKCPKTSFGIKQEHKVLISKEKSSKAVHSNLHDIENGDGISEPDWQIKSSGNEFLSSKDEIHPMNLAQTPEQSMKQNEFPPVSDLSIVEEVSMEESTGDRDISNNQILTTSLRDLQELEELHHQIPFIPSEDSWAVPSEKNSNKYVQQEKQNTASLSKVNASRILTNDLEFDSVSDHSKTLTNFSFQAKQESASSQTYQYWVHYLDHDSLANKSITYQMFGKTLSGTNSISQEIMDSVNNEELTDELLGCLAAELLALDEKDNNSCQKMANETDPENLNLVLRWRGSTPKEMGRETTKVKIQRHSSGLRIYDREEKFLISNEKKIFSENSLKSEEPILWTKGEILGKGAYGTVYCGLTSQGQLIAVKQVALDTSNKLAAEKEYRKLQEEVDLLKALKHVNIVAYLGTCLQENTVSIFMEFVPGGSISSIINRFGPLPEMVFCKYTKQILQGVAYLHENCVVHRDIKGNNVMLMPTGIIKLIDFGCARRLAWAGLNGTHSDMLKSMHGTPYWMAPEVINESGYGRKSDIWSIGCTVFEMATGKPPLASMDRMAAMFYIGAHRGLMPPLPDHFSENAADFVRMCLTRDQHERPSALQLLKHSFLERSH
Description: (§1) This panel includes 403 wild-type (WT) human kinases but not TTBK1/2. […] Substantial overlap between the MRC and DiscoverX scanMAX kinase panels allows the comparison of results for the same kinases in two different assay formats (enzymatic versus binding, respectively) at the same concentration. Selectivity results are included in two columns within Table 1. […] The rightmost column converts this selectivity score into the number of kinases with a PoC < 10 in the scanMAX panel.
(§2) The Eurofins DiscoverX Corporation scanMAX assay platform was employed to assess the selectivity of specific analogs at a single concentration (1 µM). As described previously, this assay platform profiles a compound against 403 wild-type human kinases and delivers percent of control (PoC) values. These percent of control values are included in Table 1 and corresponding kinome tree diagrams as well as tables for each analog included in Fig. S1.

[2] = biological target: T2, CIT (Homo sapiens, UniProt O14578); conditions: 1 μM
T2 construct: purchased Eurofins (radiometric) / Eurofins DiscoverX scanMAX / Reaction Biology / SignalChem
Description: as §1, §2

[3] = biological target: T3, TAOK3 (Homo sapiens, UniProt Q9H2K8); conditions: for TAOK3 % control at 1000nM: 1 μM
T3 construct: purchased Eurofins (radiometric) / Eurofins DiscoverX scanMAX / Reaction Biology / SignalChem
T3 sequence (Q9H2K8 1-898): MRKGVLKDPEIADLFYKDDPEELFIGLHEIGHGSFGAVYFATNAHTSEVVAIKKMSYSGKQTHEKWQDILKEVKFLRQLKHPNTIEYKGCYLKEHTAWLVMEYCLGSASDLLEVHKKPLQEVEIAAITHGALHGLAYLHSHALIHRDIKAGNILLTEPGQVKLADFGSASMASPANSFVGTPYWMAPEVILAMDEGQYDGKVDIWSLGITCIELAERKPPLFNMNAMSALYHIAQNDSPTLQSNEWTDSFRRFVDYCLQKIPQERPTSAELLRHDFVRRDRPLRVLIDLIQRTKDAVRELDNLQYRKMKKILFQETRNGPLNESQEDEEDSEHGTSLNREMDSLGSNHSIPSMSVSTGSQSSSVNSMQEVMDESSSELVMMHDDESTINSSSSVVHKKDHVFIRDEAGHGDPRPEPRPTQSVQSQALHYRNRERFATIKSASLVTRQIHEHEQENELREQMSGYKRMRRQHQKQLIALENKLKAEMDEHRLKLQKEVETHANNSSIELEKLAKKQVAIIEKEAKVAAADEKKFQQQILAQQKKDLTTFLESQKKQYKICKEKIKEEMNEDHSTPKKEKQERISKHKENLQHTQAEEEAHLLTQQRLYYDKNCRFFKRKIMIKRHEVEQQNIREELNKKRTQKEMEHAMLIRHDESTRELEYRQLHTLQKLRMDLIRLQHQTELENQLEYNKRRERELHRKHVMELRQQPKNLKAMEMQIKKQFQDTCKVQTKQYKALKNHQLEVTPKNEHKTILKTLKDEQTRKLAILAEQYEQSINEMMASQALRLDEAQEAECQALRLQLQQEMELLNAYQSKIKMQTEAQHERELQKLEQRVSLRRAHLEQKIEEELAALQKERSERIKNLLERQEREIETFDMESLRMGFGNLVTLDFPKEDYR
Description: as §1, §2

T2 sequence (O14578 whole entry): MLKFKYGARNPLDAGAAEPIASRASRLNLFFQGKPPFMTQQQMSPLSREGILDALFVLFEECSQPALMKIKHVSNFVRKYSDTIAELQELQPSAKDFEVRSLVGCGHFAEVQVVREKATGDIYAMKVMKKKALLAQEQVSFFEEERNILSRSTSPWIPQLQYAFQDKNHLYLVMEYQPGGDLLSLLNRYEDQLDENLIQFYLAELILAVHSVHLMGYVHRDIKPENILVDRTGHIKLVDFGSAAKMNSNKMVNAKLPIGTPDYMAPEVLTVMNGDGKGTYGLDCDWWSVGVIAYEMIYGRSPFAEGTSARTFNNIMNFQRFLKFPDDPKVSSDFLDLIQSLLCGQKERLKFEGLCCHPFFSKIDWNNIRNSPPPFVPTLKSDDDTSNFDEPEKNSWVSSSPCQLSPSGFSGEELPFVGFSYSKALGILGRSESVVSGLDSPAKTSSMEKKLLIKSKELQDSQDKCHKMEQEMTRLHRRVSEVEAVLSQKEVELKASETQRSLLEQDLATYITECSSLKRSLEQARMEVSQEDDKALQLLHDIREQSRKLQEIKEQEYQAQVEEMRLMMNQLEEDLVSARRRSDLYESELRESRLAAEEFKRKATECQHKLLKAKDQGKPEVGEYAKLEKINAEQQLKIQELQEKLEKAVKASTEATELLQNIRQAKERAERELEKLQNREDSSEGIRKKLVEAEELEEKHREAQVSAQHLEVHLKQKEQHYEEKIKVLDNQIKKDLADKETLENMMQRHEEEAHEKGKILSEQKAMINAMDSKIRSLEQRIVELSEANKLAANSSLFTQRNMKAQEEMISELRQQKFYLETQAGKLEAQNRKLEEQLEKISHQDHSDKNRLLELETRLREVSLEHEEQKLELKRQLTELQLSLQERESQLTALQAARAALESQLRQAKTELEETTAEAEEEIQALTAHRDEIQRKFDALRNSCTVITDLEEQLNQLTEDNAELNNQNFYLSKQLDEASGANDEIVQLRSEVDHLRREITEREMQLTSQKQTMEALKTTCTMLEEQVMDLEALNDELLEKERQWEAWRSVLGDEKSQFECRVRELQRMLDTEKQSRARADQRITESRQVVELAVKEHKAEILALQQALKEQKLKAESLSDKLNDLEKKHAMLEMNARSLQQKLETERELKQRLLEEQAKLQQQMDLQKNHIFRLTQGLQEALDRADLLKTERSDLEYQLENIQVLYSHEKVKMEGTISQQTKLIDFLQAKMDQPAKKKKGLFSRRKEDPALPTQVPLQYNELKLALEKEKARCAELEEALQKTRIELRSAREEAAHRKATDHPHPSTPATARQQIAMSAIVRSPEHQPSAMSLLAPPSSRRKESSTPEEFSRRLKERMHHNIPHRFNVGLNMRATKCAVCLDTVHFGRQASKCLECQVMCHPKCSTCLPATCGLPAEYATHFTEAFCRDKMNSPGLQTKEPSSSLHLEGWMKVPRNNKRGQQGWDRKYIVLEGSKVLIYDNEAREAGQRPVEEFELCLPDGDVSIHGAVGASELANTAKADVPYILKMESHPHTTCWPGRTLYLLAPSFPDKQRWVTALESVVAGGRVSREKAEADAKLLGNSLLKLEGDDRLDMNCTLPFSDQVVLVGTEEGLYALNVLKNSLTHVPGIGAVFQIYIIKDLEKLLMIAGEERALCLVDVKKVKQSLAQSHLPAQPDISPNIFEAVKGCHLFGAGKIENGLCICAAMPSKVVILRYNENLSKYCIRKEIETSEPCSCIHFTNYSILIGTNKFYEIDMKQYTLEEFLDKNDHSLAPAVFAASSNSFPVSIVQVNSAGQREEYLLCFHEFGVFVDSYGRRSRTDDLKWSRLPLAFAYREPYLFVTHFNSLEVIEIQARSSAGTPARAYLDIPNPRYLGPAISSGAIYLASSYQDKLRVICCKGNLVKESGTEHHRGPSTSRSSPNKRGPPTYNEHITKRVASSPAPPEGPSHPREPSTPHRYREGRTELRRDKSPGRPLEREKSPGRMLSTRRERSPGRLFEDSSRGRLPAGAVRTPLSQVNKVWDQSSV

SMILES	YSK4 % control at 1000nM / DiscoverX PoC value [1]	CIT (CRIK) % control at 1000nM / DiscoverX PoC value [2]	kinase binding, percent of control at 1 µM ([3]; read-out: TAOK3 % control at 1000nM)	TAOK3 % control at 1000nM [3]
CC(C)(O)C#Cc1ccc2[nH]c3c(c2c1)-c1nc(N)ncc1CCC3 [AMG28, reference compound]	0 % control	1.3 % control	1.8%	
CC(C)(O)C#Cc1ccc2[nH]c3c(c2c1)-c1nc(N)ncc1CC3 [Compound 1]	0 % control	0 % control		1.5 % control
CC(C)(O)C#Cc1ccc2[nH]cc(-c3ccnc(N)n3)c2c1 [Compound 3]	0 % control	0 % control		0.4 % control
